Measured values as given in patent publication US20260101898A1, “SULFONAMIDE COMPOUND AND HARMFUL-ARTHROPOD CONTROLLING COMPOSITION CONTAINING SAME” (SUMITOMO CHEMICAL COMPANY, LIMITED, priority 2022, published 2026).

Key:
Format in all cases: in vivo
[1] = tested on: diamondback moth (Plutella xylostella); experiment: Test Method 10: sprayed cabbage seedling, third-instar larvae of diamondback moth (formulation per Formulation Example 5); settings: 120 h, spray 20 mL/seedling, after 5 days
Method: (§1) Each test compound is made to a formulation according to a similar method to that described in the Formulation Example 5, and thereto is added water containing 0.03 v/v % of Shindain (registered trademark) to prepare a diluted solution containing a prescribed concentration of the test compound.
(§2) Cabbage (Brassicae oleracea) seedling (on the developmental stage of the third to fourth true leaf) is planted in a container, and the diluted solutions are sprayed to the seedling at a ratio of 20 mL/seedling. Thereafter, ten of third-instar larvae of diamondback moth (Plutella xylostella) are released. After 5 days, the number of the surviving insects is counted, and the mortality of insects is calculated by the following equation.

[2] = tested on: diamondback moth (Plutella xylostella); experiment: Test Method 4: sprayed cabbage seedling, second-instar larvae of diamondback moth; settings: 120 h, spray 20 mL/seedling, after 5 days
Method: (§3) Each test compound is made to a formulation according to a similar method to that described in the Formulation Example 1, and thereto is added water containing 0.03 v/v % of Shindain (registered trademark) to prepare a diluted solution containing a prescribed concentration of the test compound.
(§4) Cabbage (Brassicae oleracea) seedling (on the developmental stage of the second to third true leaf) is planted in a container, and the diluted solutions are sprayed to the seedling at a ratio of 20 mL/seedling. Thereafter, the aerial part of the seedling is cut out and then is installed into a container in which a filter paper is placed at the bottom of the container. Five of second-instar larvae of diamondback moth (Plutella xylostella) are released into the container. After 5 days, the number of the surviving insects is counted, and the mortality of insects is calculated by the following equation.

[3] = tested on: German cockroach (Blattella germanica); experiment: Test Method 6: coated glass vial, German cockroach male adults; settings: 40 mg/m^2 coated vial, 3 days
Method: An acetone solution which is adjusted to 800 ppm of each test compound is poured into a 50 mL glass vial, and the test compound is coated uniformly on inner face of the vial so as to 40 mg/m^2 of the test compound treated, and the vial is then dried.
5 German cockroach (Blattella germanica) male adults are released into the treated vial, and the vial is then covered with lid. After the prescribed time, the state of the German cockroach is examined, and the mortality is calculated by the following equation.

[4] = tested on: Western corn rootworm (Diabrotica virgifera virgifera); experiment: Test Method 5: corn seedling dip, second-instar larvae of Western corn rootworm; settings: 120 h, corn seedling immersed 30 seconds, after 5 days
Method: Each 1 mg of the test compounds is dissolved in 50 μL of a mixed solution consisting of 5% of polyoxyethylene sorbitan mono-cocoate and 95% of acetone by volume ratio. Thereto is added water containing 0.03% by volume of Shindain (registered trademark) to prepare a diluted solution containing a prescribed concentration of the test compound.
A young seedling of corn (Zea mays) is immersed into the diluted solution for 30 seconds. Thereafter, two seedlings are installed in a plastic petri dish ([…]), and 10 of second-instar larvae of Western corn rootworm (Diabrotica virgifera virgifera) are released into the dish. After 5 days, the number of the dead insects is counted, and the mortality of insects is calculated by the following equation.

[5] = tested on: common cutworm (Spodoptera litura); experiment: Test Method 3: sprayed cabbage seedling, second-instar larvae of common cutworm; settings: 120 h, spray 20 mL/seedling, after 5 days
Method: as §3
as §4, with “common cutworm (Spodoptera litura)” for “diamondback moth (Plutella xylostella)”

[6] = tested on: common cutworm (Spodoptera litura); experiment: Test Method 9: sprayed cabbage seedling, third-instar larvae of common cutworm (formulation per Formulation Example 5); settings: 144 h, spray 20 mL/seedling, after 6 days
Method: as §1
as §2, with “common cutworm (Spodoptera litura)” for “diamondback moth (Plutella xylostella)”, “6” for “5”

[7] = tested on: housefly (Musca domestica); experiment: Test Method 8: coated glass vial, housefly female adults; settings: 40 mg/m^2 coated vial, 1 day
Method: An acetone solution which is adjusted to 800 ppm of each test compound is poured into a 20 mL glass vial, and the test compound is coated uniformly on inner face of the vial so as to 40 mg/m^2 of the test compound treated, and the vial is then dried.
5 housefly (Musca domestica) female adults are released into the treated vial, and the vial is then covered with lid. After the prescribed time, the state of the housefly is examined, and the mortality is calculated by the following equation.

[8] = tested on: cotton aphids (Aphis gossypii); experiment: Test Method 2: soil drench of cucumber seedling, cotton aphids released after 7 days; settings: drench 5 mL/seedling, examined after 6 days
Method: Each test compound is made to a formulation according to a similar method to that described in the Formulation Example 5, and thereto is added water to prepare a diluted solution containing a prescribed concentration of the test compound. Cucumber (Cucumis sativus) seedling (on the developmental stage of the second true leaf) is planted in a container, and the diluted solutions are drenched to the bottom of the seedling at a ratio of 5 mL/seedling. After 7 days, approximately 30 cotton aphids (Aphis gossypii) (all developmental stages of life) are released onto the leaf of the seedling. After 6 days, the number of the surviving insects is examined and the controlling value is calculated by the following equation. [formula] wherein the symbols in the formula represent the following descriptions. • Cb: Number of the test insects in untreated group; • Cai: Number of the surviving insects at the time of the investigation in untreated group; • Tb: Number of the test insects in treated group; • Tai: Number of the surviving insects at the time of the investigation in treated group; Here the “untreated group” represents a group where the similar treatment procedure to that of the treated group except not using the test compound is done.

Compound	mortality at 200 ppm [1] [%]	mortality at 500 ppm [2] [%]	mortality [3] [%]	mortality at 200 ppm [4] [%]	mortality at 50 ppm [1] [%]	mortality at 500 ppm [5] [%]	mortality at 200 ppm [6] [%]	mortality [7] [%]	controlling value ([8]; 250 ppm) [%]	controlling value ([8]; 1000 ppm) [%]
CN(C)S(=O)(=O)c1cc(Br)cnc1-n1nc2ccc(C(F)(F)F)cn2c1=O [Present compound 1]	≥ 80	≥ 80								
CNS(=O)(=O)c1c(-c2nc3cc(C(F)(F)F)cnc3[nH]2)nc2ccc(C(F)(F)F)cn12 [Present compound 3]	≥ 80	≥ 80	100	100	≥ 80	≥ 80	≥ 80	100		
CN(C)S(=O)(=O)c1c(-n2nc3ccc(C(F)(F)F)cn3c2=O)nc2ccc(Br)cn12 [Present compound 2]	≥ 80	≥ 80			≥ 80	≥ 80	≥ 80		100	100
